From patent US12017992B2, “Compounds for modulating mitochondrial function” (Mayo Foundation for Medical Education and Research, priority 2015, dated 2024)

Test: Comment on salt form (Table 3)
Type: physicochemical
Conditions: TFA salt

Cc1cccc(O[C@@H]2CCC[C@H](C(C)CNCc3ccncc3)C2)c1 (stereo partly shown)
Comments (salt form): Highly hygroscopic
